From ChEMBL document CHEMBL3046894, “Synthesis and Herbicidal Activity of Pyrimidinyl Salicylic and Thiosalicylic Acids” (J Pestic Sci, 1996)
Calls of active or inactive are those of the source. No cut-off for these calls is given here.

Experiments:
Echinochloa crus-galli [1] = assay: Pre-emergence herbicidal activity against Echinochloa crus-galli (barnyard grass) assessed as mortality at 6.3 g a.i/10 a; assay type: functional; details: Echinochloa crus-galli, pre-emergence
Xanthium strumarium [2] = assay: Post-emergence herbicidal activity against Xanthium strumarium (cocklebur) assessed as mortality at 6.3 g a.i/10 a applied 11 days after germination as foliar spray; assay type: functional; details: 264 h
Gossypium hirsutum [3] = assay: Pre-emergence phytotoxicity against Gossypium hirsutum (cotton) assessed as mortality at 6.3 g a.i/10 a; assay type: organism-based; details: in vivo, other
Glycine max [4] = assay: Pre-emergence phytotoxicity against Glycine max (soybean) assessed as mortality at 1.6 g a.i/10 a; assay type: organism-based; details: in vivo, other
Glycine max [5] = assay: Pre-emergence phytotoxicity against Glycine max (soybean) assessed as mortality at 6.3 g a.i/10 a; assay type: organism-based; details: in vivo, other
[6] = Pre-emergence phytotoxicity against Zea mays (maize) assessed as mortality at 1.6 g a.i/10 a; assay type: organism-based; details: in vivo, 1.6 g a.i/10 a, read-out: mortality
Gossypium hirsutum [7] = assay: Post-emergence phytotoxicity against Gossypium hirsutum (cotton) assessed as mortality at 1.6 g a.i/10 a applied 11 days after germination as foliar spray; assay type: organism-based; details: in vivo, other, 264 h
Gossypium hirsutum [8] = assay: Post-emergence phytotoxicity against Gossypium hirsutum (cotton) assessed as mortality at 6.3 g a.i/10 a applied 11 days after germination as foliar spray; assay type: organism-based; details: in vivo, other, 264 h
Glycine max [9] = assay: Post-emergence phytotoxicity against Glycine max (soybean) assessed as mortality at 6.3 g a.i/10 a applied 11 days after germination as foliar spray; assay type: organism-based; details: in vivo, other, 264 h
Glycine max [10] = assay: Post-emergence phytotoxicity against Glycine max (soybean) assessed as mortality at 1.6 g a.i/10 a applied 11 days after germination as foliar spray; assay type: organism-based; details: in vivo, other, 264 h
Zea mays [11] = assay: Post-emergence phytotoxicity against Zea mays (maize) assessed as mortality at 1.6 g a.i/10 a applied 11 days after germination as foliar spray; assay type: organism-based; details: in vivo, other, 264 h
Zea mays [12] = assay: Post-emergence phytotoxicity against Zea mays (maize) assessed as mortality at 6.3 g a.i/10 a applied 11 days after germination as foliar spray; assay type: organism-based; details: in vivo, other, 264 h
Xanthium strumarium [13] = assay: Post-emergence herbicidal activity against Xanthium strumarium (cocklebur) assessed as mortality at 1.6 g a.i/10 a applied 11 days after germination as foliar spray; assay type: functional; details: 264 h
Cyperus iria [14] = assay: Pre-emergence herbicidal activity against Cyperus iria assessed as growth inhibition at 25 g a.i/10 a; assay type: functional, organism-based
Chenopodium album [15] = assay: Pre-emergence herbicidal activity against Chenopodium album assessed as growth inhibition at 25 g a.i/10 a; assay type: functional, organism-based
Amaranthus retroflexus [16] = assay: Pre-emergence herbicidal activity against Amaranthus retroflexus assessed as growth inhibition at 25 g a.i/10 a; assay type: functional, organism-based
Persicaria nodosa [17] = assay: Pre-emergence herbicidal activity against Persicaria nodosa assessed as growth inhibition at 25 g a.i/10 a; assay type: functional, organism-based
Digitaria sanguinalis [18] = assay: Pre-emergence herbicidal activity against Digitaria sanguinalis (hairy crabgrass) assessed as growth inhibition at 25 g a.i/10 a; assay type: functional, organism-based
Echinochloa crus-galli [19] = assay: Pre-emergence herbicidal activity against Echinochloa crus-galli (barnyard grass) assessed as growth inhibition at 25 g a.i/10 a; assay type: functional, organism-based
Cyperus iria [20] = assay: Post-emergence herbicidal activity against Cyperus iria assessed as growth inhibition at 25 g a.i/10 a applied 11 days after germination as foliar spray; assay type: functional, organism-based
Chenopodium album [21] = assay: Post-emergence herbicidal activity against Chenopodium album assessed as growth inhibition at 25 g a.i/10 a applied 11 days after germination as foliar spray; assay type: functional, organism-based
Amaranthus retroflexus [22] = assay: Post-emergence herbicidal activity against Amaranthus retroflexus assessed as growth inhibition at 25 g a.i/10 a applied 11 days after germination as foliar spray; assay type: functional, organism-based
Persicaria nodosa [23] = assay: Post-emergence herbicidal activity against Persicaria nodosa assessed as growth inhibition at 25 g a.i/10 a applied 11 days after germination as foliar spray; assay type: functional, organism-based
Digitaria sanguinalis [24] = assay: Post-emergence herbicidal activity against Digitaria sanguinalis (hairy crabgrass) assessed as growth inhibition at 25 g a.i/10 a applied 11 days after germination as foliar spray; assay type: functional, organism-based
Echinochloa crus-galli [25] = assay: Post-emergence herbicidal activity against Echinochloa crus-galli (barnyard grass) assessed as growth inhibition at 25 g a.i/10 a applied 11 days after germination as foliar spray; assay type: functional, organism-based
Xanthium strumarium [26] = assay: Pre-emergence herbicidal activity against Xanthium strumarium (cocklebur) assessed as mortality at 1.6 g a.i/10 a; assay type: functional; details: Xanthium strumarium, pre-emergence
Xanthium strumarium [27] = assay: Pre-emergence herbicidal activity against Xanthium strumarium (cocklebur) assessed as mortality at 6.3 g a.i/10 a; assay type: functional; details: Xanthium strumarium, pre-emergence
Ipomoea lacunosa [28] = assay: Pre-emergence herbicidal activity against Ipomoea lacunosa assessed as mortality at 1.6 g a.i/10 a; assay type: functional; details: Ipomoea lacunosa, pre-emergence
Ipomoea lacunosa [29] = assay: Pre-emergence herbicidal activity against Ipomoea lacunosa assessed as mortality at 6.3 g a.i/10 a; assay type: functional; details: Ipomoea lacunosa, pre-emergence
Abutilon theophrasti [30] = assay: Pre-emergence herbicidal activity against Abutilon theophrasti (velvetleaf) assessed as mortality at 1.6 g a.i/10 a; assay type: functional; details: Abutilon theophrasti, pre-emergence
Abutilon theophrasti [31] = assay: Pre-emergence herbicidal activity against Abutilon theophrasti (velvetleaf) assessed as mortality at 6.3 g a.i/10 a; assay type: functional; details: Abutilon theophrasti, pre-emergence
Echinochloa crus-galli [32] = assay: Pre-emergence herbicidal activity against Echinochloa crus-galli (barnyard grass) assessed as mortality at 1.6 g a.i/10 a; assay type: functional; details: Echinochloa crus-galli, pre-emergence
[33] = Pre-emergence phytotoxicity against Glycine max (soybean) assessed as mortality at 100 g a.i/10 a; assay type: organism-based; details: in vivo
Glycine max [34] = assay: Pre-emergence phytotoxicity against Glycine max (soybean) assessed as mortality at 200 g a.i/10 a; assay type: organism-based; details: in vivo, other
Xanthium strumarium [35] = assay: Pre-emergence herbicidal activity against Xanthium strumarium (cocklebur) assessed as mortality at 100 g a.i/10 a; assay type: functional
Xanthium strumarium [36] = assay: Pre-emergence herbicidal activity against Xanthium strumarium (cocklebur) assessed as mortality at 200 g a.i/10 a; assay type: functional, organism-based
Ipomoea lacunosa [37] = assay: Pre-emergence herbicidal activity against Ipomoea lacunosa assessed as mortality at 100 g a.i/10 a; assay type: functional
Ipomoea lacunosa [38] = assay: Pre-emergence herbicidal activity against Ipomoea lacunosa assessed as mortality at 200 g a.i/10 a; assay type: functional
Abutilon theophrasti [39] = assay: Pre-emergence herbicidal activity against Abutilon theophrasti (velvetleaf) assessed as mortality at 100 g a.i/10 a; assay type: functional
Abutilon theophrasti [40] = assay: Pre-emergence herbicidal activity against Abutilon theophrasti (velvetleaf) assessed as mortality at 200 g a.i/10 a; assay type: functional
Echinochloa crus-galli [41] = assay: Pre-emergence herbicidal activity against Echinochloa crus-galli (barnyard grass) assessed as mortality at 100 g a.i/10 a; assay type: functional
Echinochloa crus-galli [42] = assay: Pre-emergence herbicidal activity against Echinochloa crus-galli (barnyard grass) assessed as mortality at 200 g a.i/10 a; assay type: functional, organism-based

COC(=O)c1cccc(Oc2nc(OC)cc(OC)n2)c1C(=O)O
mortality at 63 g/ha (Echinochloa crus-galli [1]): < 5% | mortality at 63 g/ha (Xanthium strumarium [2]): < 5% | Activity (Gossypium hirsutum [3]): Non-toxic | Activity (Glycine max [4]): Non-toxic | Activity (Glycine max [5]): Non-toxic | mortality [6]: < 5% | Activity (Gossypium hirsutum [7]): Toxic | Activity (Gossypium hirsutum [8]): Toxic | Activity (Glycine max [9]): Toxic | Activity (Glycine max [10]): Toxic | Activity (Zea mays [11]): Toxic | Activity (Zea mays [12]): Toxic | mortality at 16 g/ha (Xanthium strumarium [13]): < 5% | growth inhibition (GI) (Cyperus iria [14]): Active | growth inhibition (GI) (Chenopodium album [15]): Active | growth inhibition (GI) (Amaranthus retroflexus [16]): Active | growth inhibition (GI) (Persicaria nodosa [17]): Active | growth inhibition (GI) (Digitaria sanguinalis [18]): Active | growth inhibition (GI) (Echinochloa crus-galli [19]): inactive | growth inhibition (GI) (Cyperus iria [20]): Active | growth inhibition (GI) (Chenopodium album [21]): Active | growth inhibition (GI) (Amaranthus retroflexus [22]): Active | growth inhibition (GI) (Persicaria nodosa [23]): Active | growth inhibition (GI) (Digitaria sanguinalis [24]): Active | growth inhibition (GI) (Echinochloa crus-galli [25]): Active | mortality at 16 g/ha (Xanthium strumarium [26]): < 5% | mortality at 63 g/ha (Xanthium strumarium [27]): < 5% | mortality at 16 g/ha (Ipomoea lacunosa [28]): < 5% | mortality at 63 g/ha (Ipomoea lacunosa [29]): < 5% | mortality at 16 g/ha (Abutilon theophrasti [30]): < 5% | mortality at 63 g/ha (Abutilon theophrasti [31]): < 5% | mortality at 16 g/ha (Echinochloa crus-galli [32]): < 5%

CN(C)C(=O)Nc1cccc(C(F)(F)F)c1 [FLUOMETURON]
mortality [33]: < 5% | Activity (Glycine max [34]): Toxic | mortality at 1000 g/ha (Xanthium strumarium [35]): < 5% | Activity (Xanthium strumarium [36]): inactive | mortality at 1000 g/ha (Ipomoea lacunosa [37]): < 5% | mortality at 2000 g/ha (Ipomoea lacunosa [38]): < 5% | mortality at 1000 g/ha (Abutilon theophrasti [39]): < 5% | mortality at 2000 g/ha (Abutilon theophrasti [40]): < 5% | mortality at 1000 g/ha (Echinochloa crus-galli [41]): < 5% | Activity (Echinochloa crus-galli [42]): Active
